How the values were obtained:
[1] = test system: patients with unresectable HCC; assay: Open-label phase 3 study, safety and side-effect profile (CTCAE v4.0)
From the text: (§3) Randomization was stratified according to region (Asia-Pacific or Western regions), macroscopic portal vein invasion and/or extrahepatic spread (yes or no), Eastern Cooperative Oncology Group performance status (0 or 1), and body weight (<60 kg or ≥60 kg).
(§4) Safety assessments included recording of vital signs, hematologic and biochemical laboratory testing, urinalysis, and electrocardiography.

[2] = Dissociation constant; assay type: physicochemical; conditions: 25° C.
[3] = Partition coefficient; assay type: physicochemical; conditions: read-out: partition coefficient (log P value)
[4] = test system: unresectable hepatocellular carcinoma (HCC); assay: REFLECT study, efficacy per independent review; assay type: in vivo, human
Protocol: The efficacy of LENVIMA was evaluated in a randomized, open-label, multicenter, international study (REFLECT; […]) conducted in patients with previously untreated unresectable hepatocellular carcinoma (HCC).

[5] = Solubility; assay type: physicochemical
[6] = test system: patients with unresectable HCC; conditions: human, in vivo
From the text: as §3, §4

[7] = test system: unresectable HCC; assay: Open-label phase 3 noninferiority study, efficacy (tumor assessment by mRECIST); assay type: in vivo, human
From the text: (§1) The primary endpoint was overall survival.
Patients who were eligible for enrollment had unresectable HCC with diagnosis confirmed histologically or cytologically or with diagnosis confirmed clinically in accordance with the American Association for the Study of Liver Diseases criteria. Included patients also had ≥1 measureable target lesion, based on modified Response Evaluation Criteria in Solid Tumors (Lencioni 2010); Barcelona Clinic Liver Cancer stage B or C categorization (Bruix Hepatology 2011); Child-Pugh class A; and Eastern Cooperative Oncology Group performance status ≤1. All eligible patients had controlled blood pressure (≤150/90 mm Hg), and adequate organ function. Patients with ≥50% liver occupation, clear bile duct invasion, or portal vein invasion at the main portal vein were excluded. Patients also were excluded if that had received prior systemic therapy for HCC.
(§2) Tumors were evaluated in accordance with mRECIST (Lencioni R., Semin Liver Dis., 30(1):52-60, 2010); RECIST 1.1 was applied for nonhepatic lesions (Eisenhauer, Eur J Cancer, 45(2):228-47, 2009). The liver was examined with computed tomography or magnetic resonance imaging was performed using a triphasic scanning technique. Assessments were performed every 8 weeks until disease progression. Quality of life questionnaires were administered at baseline, on day 1 of each subsequent treatment cycle, and at the off-treatment visit.
The primary endpoint of overall survival was first tested for noninferiority then for superiority. The required number of events for the primary analysis was 700 deaths, based on the fill analysis set. The HR and its 95% confidence interval (CI) were estimated from a Cox proportional hazard model with treatment group as a factor and with the analysis stratified according to the same factors applied for randomization.
A fixed-sequence procedure was followed to control the overall type I error rate of analyses for both the primary and secondary efficacy endpoints at α=0.05 (2-sided). After noninferiority was declared, secondary efficacy endpoints were tested. Differences in progression-free survival and time to progression were evaluated using a stratified log-rank test with randomization stratification factors, with the associated HR and its 95% CI. A difference in the objective response rate was evaluated using the Cochran-Mantel-Haenszel chi-square test with randomized stratification factors as strata, with associated odds ratio and its 95% CI. To assess futility, 2 interim analyses (at 30% and 70% of the target number of events) were performed using Bayesian predictive probability in a noninferiority design by the independent data monitoring committee.

[8] = test system: HCC; conditions: cited from earlier work
[9] = test system: patients with unresectable HCC; assay: Quality of life, EORTC QLQ-C30 and QLQ-HCC18 questionnaires; assay type: in vivo, human; conditions: role functioning, pain, diarrhea (QLQ-C30); nutrition, body image (QLQ-HCC18)
Protocol: as §1, §2

SMILES: COc1cc2nccc(Oc3ccc(NC(=O)NC4CC4)c(Cl)c3)c2cc1C(N)=O [LENVIMA, 4-[3-chloro-4-(N′-cyclopropylureido)phenoxy]-7-methoxyquinoline-6-carboxamide methanesulfonate]
- adverse reactions leading to dose reduction or interruption ([1]; in vivo): about 62%
- discontinuation due to fatigue ([1]; in vivo): 1%
- discontinuation due to hepatic encephalopathy ([1]; in vivo): 1%
- discontinuation due to hepatic failure ([1]; in vivo): 1%
- discontinuation due to hyperbilirubinemia ([1]; in vivo): 1%
- dose reduction or interruption due to decreased appetite ([1]; in vivo): 8%
- dose reduction or interruption due to diarrhea ([1]; in vivo): 8%
- dose reduction or interruption due to fatigue ([1]; in vivo): 9%
- dose reduction or interruption due to hypertension ([1]; in vivo): 6%
- dose reduction or interruption due to palmar-plantar erythrodysesthesia syndrome ([1]; in vivo): 5%
- dose reduction or interruption due to proteinuria ([1]; in vivo): 7%
- serious adverse reaction: ascites ([1]; in vivo): 3%
- serious adverse reaction: decreased appetite ([1]; in vivo): 2%
- serious adverse reaction: hepatic encephalopathy ([1]; in vivo): 4%
- serious adverse reaction: hepatic failure ([1]; in vivo): 3%
- treatment discontinuation due to adverse reactions ([1]; in vivo): 20%
- pKa [2]: 5.05
- logP [3]: 3.3
- Median PFS ([4]; RECIST 1.1, independent review): 7.3 months
- Objective response rate ([4]; RECIST 1.1, independent review): 19%
- PFS Number of Events ([4]; RECIST 1.1, independent review): 307
- PFS Number of Events (%) ([4]; RECIST 1.1, independent review): (64) %
- Number of deaths ([4]; in vivo): 351
- Number of deaths (%) ([4]; in vivo): (73) %
- Objective response rate ([4]; mRECIST, independent review): 41%
- PFS Number of Events ([4]; mRECIST, independent review): 311
- PFS Number of Events (%) ([4]; mRECIST, independent review): (65) %
- solubility in ethanol (dehydrated) [5]: practically insoluble
- solubility in water [5]: slightly soluble

SMILES: CNC(=O)c1cc(Oc2ccc(NC(=O)Nc3ccc(Cl)c(C(F)(F)F)c3)cc2)ccn1 [Sorafenib]
- treatment-related fatal adverse events included ([1]; 1 event per patient): tumor hemorrhage, ischemic stroke, respiratory failure, and sudden death
- AEs leading to dose reduction or interruption, subjects [6]: 55.6%
- Dose modification: AST increased [6]: 3.8%
- Dose modification: ascites [6]: 1.1%
- Dose modification: hepatic encephalopathy [6]: 0.6%
- Dose modification: neutrophil count decreased [6]: 1.1%
- Dose modification: pyrexia [6]: 1.1%
- Dose modification: vomiting [6]: 1.3%
- Dose modification: weight decreased [6]: 0.8%
- Dose reduction/interruption: Abdominal pain [6]: 8 (1.7) n (%)
- Dose reduction/interruption: Abdominal pain upper [6]: 2 (0.4) n (%)
- Dose reduction/interruption: Alanine aminotransferase increased [6]: 9 (1.9) n (%)
- Dose reduction/interruption: Anemia [6]: 8 (1.7) n (%)
- Dose reduction/interruption: Ascites [6]: 5 (1.1) n (%)
- Dose reduction/interruption: Aspartate aminotransferase increased [6]: 18 (3.8) n (%)
- Dose reduction/interruption: Asthenia [6]: 9 (1.9) n (%)
- Dose reduction/interruption: Blood and lymphatic system disorders [6]: 13 (2.7) n (%)
- Dose reduction/interruption: Blood bilirubin increased [6]: 14 (2.9) n (%)
- Dose reduction/interruption: Decreased appetite [6]: 15 (3.2) n (%)
- Dose reduction/interruption: Dehydration [6]: 0 (0.0) n (%)
- Dose reduction/interruption: Diarrhea [6]: 35 (7.4) n (%)
- Dose reduction/interruption: Dyspnea [6]: 4 (0.8) n (%)
- Dose reduction/interruption: Edema peripheral [6]: 3 (0.6) n (%)
- Dose reduction/interruption: Esophageal varices hemorrhage [6]: 1 (0.2) n (%)
- Dose reduction/interruption: Fatigue [6]: 17 (3.6) n (%)
- Dose reduction/interruption: Gamma-glutamyltransferase increased [6]: 4 (0.8) n (%)
- Dose reduction/interruption: Gastrointestinal disorders [6]: 72 (15.2) n (%)
- Dose reduction/interruption: General disorders and administration site conditions [6]: 35 (7.4) n (%)
- Dose reduction/interruption: Hepatic encephalopathy [6]: 3 (0.6) n (%)
- Dose reduction/interruption: Hepatic function abnormal [6]: 9 (1.9) n (%)
- Dose reduction/interruption: Hepatobiliary disorders [6]: 19 (4.0) n (%)
- Dose reduction/interruption: Hypertension [6]: 18 (3.8) n (%)
- Dose reduction/interruption: Hyponatremia [6]: 0 (0.0) n (%)
- Dose reduction/interruption: Investigations [6]: 52 (10.9) n (%)
- Dose reduction/interruption: Malaise [6]: 0 (0.0) n (%)
- Dose reduction/interruption: Metabolism and nutrition disorders [6]: 19 (4.0) n (%)
- Dose reduction/interruption: Musculoskeletal and connective tissue disorders [6]: 9 (1.9) n (%)
- Dose reduction/interruption: Myalgia [6]: 0 (0.0) n (%)
- Dose reduction/interruption: Nausea [6]: 9 (1.9) n (%)
- Dose reduction/interruption: Nervous system disorders [6]: 14 (2.9) n (%)
- Dose reduction/interruption: Neutropenia [6]: 0 (0.0) n (%)
- Dose reduction/interruption: Neutrophil count decreased [6]: 5 (1.1) n (%)
- Dose reduction/interruption: PPE syndrome [6]: 18.5%
- Dose reduction/interruption: Palmar-plantar erythrodysesthesia syndrome [6]: 88 (18.5) n (%)
- Dose reduction/interruption: Platelet count decreased [6]: 12 (2.5) n (%)
- Dose reduction/interruption: Proteinuria [6]: 7 (1.5) n (%)
- Dose reduction/interruption: Pyrexia [6]: 5 (1.1) n (%)
- Dose reduction/interruption: Rash [6]: 10 (2.1) n (%)
- Dose reduction/interruption: Rash maculo-papular [6]: 5 (1.1) n (%)
- Dose reduction/interruption: Renal and urinary disorders [6]: 9 (1.9) n (%)
- Dose reduction/interruption: Respiratory, thoracic and mediastinal disorders [6]: 12 (2.5) n (%)
- Dose reduction/interruption: Stomatitis [6]: 2 (0.4) n (%)
- Dose reduction/interruption: Thrombocytopenia [6]: 4 (0.8) n (%)
- Dose reduction/interruption: Vascular disorders [6]: 19 (4.0) n (%)
- Dose reduction/interruption: Vomiting [6]: 6 (1.3) n (%)
- Dose reduction/interruption: Weight decreased [6]: 4 (0.8) n (%)
- Dose reduction/interruption: White blood cell count decreased [6]: 4 (0.8) n (%)
- Dose reduction/interruption: decreased appetite [6]: 3.2%
- Dose reduction/interruption: diarrhea [6]: 7.4%
- Dose reduction/interruption: fatigue [6]: 3.6%
- Dose reduction/interruption: hypertension [6]: 3.8%
- Dose reduction/interruption: proteinuria [6]: 1.5%
- Primary reason for discontinuation of treatment: Adverse event [6]: 43 (9.0) n (%)
- Subjects with Any TEAEs [6]: 472 (99.4) n (%)
- Subjects with any TEAEs leading to Dose Reduction or Interruption [6]: 264 (55.6) n (%)
- TEAE: Abdominal pain [6]: 87 (18.3) n (%)
- TEAE: Abdominal pain upper [6]: 40 (8.4) n (%)
- TEAE: Alanine aminotransferase increased [6]: 52 (10.9) n (%)
- TEAE: Alopecia [6]: 119 (25.1) n (%)
- TEAE: Ascites [6]: 44 (9.3) n (%)
- TEAE: Aspartate aminotransferase increased [6]: 80 (16.8) n (%)
- TEAE: Asthenia [6]: 48 (10.1) n (%)
- TEAE: Back pain [6]: 31 (6.5) n (%)
- TEAE: Blood bilirubin increased [6]: 63 (13.3) n (%)
- TEAE: Constipation [6]: 52 (10.9) n (%)
- TEAE: Edema peripheral [6]: 33 (6.9) n (%)
- TEAE: Fatigue [6]: 119 (25.1) n (%)
- TEAE: Nausea [6]: 68 (14.3) n (%)
- TEAE: Palmar-plantar erythrodysesthesia [6]: 52.4%
- TEAE: Palmar-plantar erythrodysesthesia syndrome [6]: 249 (52.4) n (%)
- TEAE: Platelet count decreased [6]: 58 (12.2) n (%)
- TEAE: Pyrexia [6]: 63 (13.3) n (%)
- TEAE: Rash [6]: 76 (16.0) n (%)
- TEAE: Stomatitis [6]: 56 (11.8) n (%)
- TEAE: Vomiting [6]: 36 (7.6) n (%)
- TEAE: Weight decreased [6]: 106 (22.3) n (%)
- Treatment-emergent adverse events of grade 3 or higher, patients [6]: 66.5%
- Treatment-emergent adverse events, patients [6]: 99.4%
- WBC count deceased, adjusted by treatment duration [6]: 0.15 episodes per SY
- dysphonia, adjusted by treatment duration [6]: 0.28 episodes per SY
- hepatic encephalopathy, adjusted by treatment duration [6]: 0.04 episodes per SY
- hypothyroidism, adjusted by treatment duration [6]: 0.03 episodes per SY
- neutrophil count decreased, adjusted by treatment duration [6]: 0.06 episodes per SY
- proteinuria, adjusted by treatment duration [6]: 0.31 episodes per SY
- subjects without a TEAE [6]: 3 subjects
- Primary reason for discontinuation of treatment: Disease Progression ([7]; Full Analysis Set): 347 (72.9) n (%)
- Median overall survival ([7]; in vivo): 12.3 mo
- Median progression-free survival ([7]; mRECIST): 3.7 mo
- Median time to progression ([7]; mRECIST): 3.7 mo
- Objective response rate ([7]; mRECIST): 9.2%
- Median PFS ([4]; RECIST 1.1, independent review): 3.6 months
- PFS Number of Events ([4]; RECIST 1.1, independent review): 320
- PFS Number of Events (%) ([4]; RECIST 1.1, independent review): (67) %
- Median OS ([4]; in vivo): 12.3 months
- Number of deaths ([4]; in vivo): 350
- Number of deaths (%) ([4]; in vivo): (74) %
- Median PFS ([4]; mRECIST, independent review): 3.6 months
- PFS Number of Events ([4]; mRECIST, independent review): 323
- PFS Number of Events (%) ([4]; mRECIST, independent review): (68) %
- Median overall survival ([8]; first-line treatment for HCC): 10.7 months
- median improvement in overall survival compared with placebo ([8]; in vivo): 2.8 months
- response rate ([8]; in vivo): 2%
- time to clinically meaningful deterioration of quality of life [9]: deterioration was observed earlier

Reference: patent US12226409B2, “Treatment of hepatocellular carcinoma” (Eisai R&D Management Co., Ltd., priority 2017, dated 2025)
